In article PMC9573605, “Exploring Nitric Oxide (NO)-Releasing Celecoxib Derivatives as Modulators of Radioresponse in Pheochromocytoma Cells” (Molecules, 2022):

Assays:
[1] = test system: MPC-HIF2α tumor spheroids; assay: Spheroid regrowth assay with external X-ray irradiation; format: cell-based, mouse; settings: X-ray 15 Gy; 10 µM compound added 2 h post irradiation; controls 83%
Protocol: (§1) As a first pilot study, growth responses of MPC-HIF2α spheroids were investigated after two different radiation treatments such as single-dose external beam irradiation (X-ray) and incubation with [^177Lu]LuCl3, respectively. NO-COXIBs were tested at 10 µM for additional effects on radiation treatments against a vehicle-treated control (w/o) and celecoxib (Ce).
The log2-fold change in spheroid diameter is given as a standardized parameter for spheroid growth, which is positive for growing, near zero for stagnating and negative for shrinking spheroids. Furthermore, regrowth probabilities are given as a parameter to compare how many of the overall studied spheroids in one group recovered within 14 days. Radioprotective effects occurred when compounds were added 2 h before irradiation. In this setup, all compounds accelerated the increase in spheroid size during the regrowth phase compared to controls (Figure 5A, upper panel). Regrowth probabilities of 67–100% under NO-COXIB treatment remained however similar to controls (83%). Radiosensitizing effects occurred when compounds were added 2 h post irradiation. In this setup, all compounds decelerated the increase in spheroid size during the regrowth phase compared to controls.
(§2) Genetically modified mouse pheochromocytoma (MPC) cells expressing a codon-optimized Epas1 gene (encoding HIF2α) were cultured as three-dimensional tumor spheroids as published elsewhere. External X-ray beam radiation treatment and [^177Lu]LuCl3 radionuclide treatment was performed as reported previously with some modifications. In brief, spheroids were irradiated with a 200 kV photon beam using a Maxishot X-ray system equipped with a Y.TU/320-D03 tube (YXLON, Hamburg, Germany), growth of spheroids (n = 6) with diameters between 300−400 µm was measured in response to one fixed radiation dose, 15 Gy for X-ray treatment, and 0.25 MBq/mL of [^177Lu]LuCl3 for radionuclide treatment corresponding to a cumulative dose of approximately 2 Gy delivered for 6 days. The applied radiation doses were selected based on the half-maximal spheroid control doses (SCD50) as previously determined for MPC HIF2α spheroids by us. Spheroids were considered as regrown at 100 µm increase in diameter compared to treatment start or at a diameter growth rate of 15 µm per day. Results are reported as spheroid regrowth probability (%).
(§3) Figure 5 Effects of NO-COXIBs on radiation treatments of MPC-HIF2α tumor spheroids. (A) Growth responses to X-ray treatment with a radiation dose of 15 Gy in combination with 10 µM NO-COXIBs added to the medium at indicated time points before or after irradiation. (B) Growth responses to [^177Lu]LuCl3 treatment with an initial activity concentration of 0.25 MBq/mL in combination with NO-COXIBs; log2 fold changes in diameter indicate the number of diameter doublings compared to treatment start; 14-day regrowth probability indicates the fraction of spheroids able to regrow within 14 days after treatment start; (black arrows) time point or duration of radiation treatment; (w/o) vehicle controls are shown as black lines; (Ce) celecoxib.

[2] = test system: MPC-HIF2α tumor spheroids; assay: Spheroid regrowth assay with [177Lu]LuCl3 treatment; format: cell-based, mouse; settings: 10 µM compound with 0.25 MBq [177Lu]LuCl3 for six days; for growth response (spheroid size): compared to controls; for 14-day regrowth probability: controls 50%
From the text: Radionuclide therapy is a fast-evolving treatment modality gaining more importance in treating cancer. For treatment of pheochromocytomas and paragangliomas, in particular, somatostatin type 2 receptor-targeted radionuclide therapy with [^177Lu]Lu-(Tyr^3)octreotate is currently investigated in clinical controlled trials (e.g., NCT04029428, NCT03923257, NCT03206060). To assess the additional effects of NO-COXIBs on the outcome of Lu-177 therapy, a simplified in vitro setup was used here, where MPC-HIF2α tumor spheroids were treated with 10 µM of the compounds and simultaneously 0.25 MBq of [^177Lu]LuCl3 for six days.
as §2, §3

[3] = test system: MPC-HIF2a spheroids; assay: Growth of non-irradiated tumor spheroids; format: cell-based, mouse; settings: 10 µM compound, linear regression between 0 and 9 days
Protocol: as §1
4. Growth-rate of tumor spheroids in the presence of NO -COXIBS without radiation treatment
Compound Diameter growth rate
Table S2. Effects of NO-COXIBs on spheroid growth; diameter growth rates of non-irradiated MPC-HIF2a spheroids in presence of 10 µM of compounds determined from linear regression between 0 and 9 days after treatment start; (w/o) vehicle control treated with DMSO

[4] = Fluorometric NO release assay (Griess assay); format: physicochemical; settings: 24 h, 37 °C, relative to initial molar amount of compound; for thiol-dependent NO release: 2.5 mM cysteine; for spontaneous NO release: absence of cysteine
Protocol: The nitric oxide releasing properties of the nitroester-derivatives 5a–d, 5f, and 6a–d were evaluated using a fluorometric Griess assay in the presence and absence of cysteine to determine thiol-dependent and spontaneous release of nitric oxide (Figure 3).
Nitric oxide release of compounds within 24 h at 37 °C was measured using the fluorometric nitric oxide microplate assay kit ab65327 (Abcam, Cambridge, UK). For measurement of spontaneous release, 1.8 nmol of compounds were incubated in 75 µL Dulbecco’s PBS containing 0.05% v/v residual DMSO and 2.5 mM DTPA (pH = 7.1) for 24 h at 37 °C. Thiol-dependent release was measured accordingly in presence of 2.5 mM cysteine. Two series of nitrate standards were prepared (0.2−1 nmol) in 75 µL incubation buffer, in presence or absence of cysteine, respectively. According to the manufacturer’s instructions, all nitrate content in samples and standards was enzymatically converted into nitrite through incubation with nitrate reductase for 2 h at room temperature, and the resulting nitrite content (total nitric oxide) was determined through reaction with 2,3-diaminonaphthalene followed by measurement of fluorescence intensity at λex/em = 360/450 nm using a microplate reader. Nitrite content in samples was calculated from linear regression of standards and expressed as relative nitric oxide release (%) normalized to the initial molar amount of compound. NONOate served as positive control.
Figure 3 Spontaneous and thiol-dependent NO^• release from NO-COXIBs; measured using fluorometric Griess assay (n = 2); relative release indicates the percentage of soluble nitrogen species (nitrate + nitrite) detected in the incubation buffer after 24 h compared to the initial molar amount of compounds; NO^• release of NONOate (positive control) exceeded the maximum detection limit; data presented as mean ± range.

| Structure (SMILES) | 14-day regrowth probability [1] | growth response (spheroid size) [2] | 14-day regrowth probability [2] | Diameter growth rate ± SEM [3] [µm/day] | thiol-dependent NO release [4] | spontaneous NO release [4] |
| --- | --- | --- | --- | --- | --- | --- |
| Cc1ccc(-c2c(Cl)c(CO[N+](=O)[O-])nn2-c2ccc(S(C)(=O)=O)cc2)cc1 [5c, {4-Chloro-1-[4-(methylsulfonyl)phenyl]-5-(p-tolyl)-1H-pyrazol-3-yl}methyl nitrate] | 17% | prevented spheroids from shrinking in size | 60–80% | 60.4 ± 5.3 | 17% | no detectable |
| COc1ccc(-c2c(Cl)c(CO[N+](=O)[O-])nn2-c2ccc(S(C)(=O)=O)cc2)cc1 [5d, {4-Chloro-5-(4-methoxyphenyl)-1-[4-(methylsulfonyl)phenyl]-1H-pyrazol-3-yl}methyl nitrate] | 17% | prevented spheroids from shrinking in size | 60–80% | 61.2 ± 5.5 | 29–53% | 10–22% |
| COc1ccc(-c2cc(CO[N+](=O)[O-])nn2-c2ccc(S(N)(=O)=O)cc2)cc1 [5f, [5-(4-Methoxyphenyl)-1-(4-sulfamoylphenyl)-1H-pyrazol-3-yl]methyl nitrate] | 17% | prevented spheroids from shrinking in size | 60–80% | 61.4 ± 5.2 | 29–53% | 10–22% |
| CCC(=O)NS(=O)(=O)c1ccc(-n2nc(CO[N+](=O)[O-])c(Cl)c2-c2ccc(C)cc2)cc1 [6a, {4-Chloro-1-[4-(N-propionylsulfamoyl)phenyl]-5-(p-tolyl)-1H-pyrazol-3-yl}methyl nitrate] | 33–40% | prevented spheroids from shrinking in size |  | 64.1 ± 6.1 | 29–53% | 10–22% |
| CCC(=O)NS(=O)(=O)c1ccc(-n2nc(CO[N+](=O)[O-])c(Cl)c2-c2ccc(OC)cc2)cc1 [6b, {4-Chloro-5-(4-methoxyphenyl)-1-[4-(N-propionylsulfamoyl)phenyl]-1H-pyrazol-3-yl}methyl nitrate] | 0% |  | 100% | 63.1 ± 5.3 | 56% | no detectable |
| CCC(=O)NS(=O)(=O)c1ccc(-n2nc(CO[N+](=O)[O-])cc2-c2ccc(C)cc2)cc1 [6c, {1-[4-(N-Propionylsulfamoyl)phenyl]-5-(p-tolyl)-1H-pyrazol-3-yl}methyl nitrate] | 33–40% | prevented spheroids from shrinking in size | 40% | 60.0 ± 5.5 | 40% | 26% |
| CCC(=O)NS(=O)(=O)c1ccc(-n2nc(CO[N+](=O)[O-])cc2-c2ccc(OC)cc2)cc1 [6d, {5-(4-Methoxyphenyl)-1-[4-(N-propionylsulfamoyl)phenyl]-1H-pyrazol-3-yl}methyl nitrate] | 33–40% | prevented spheroids from shrinking in size | 100% | 63.7 ± 5.9 | 65% | 40% |
